pEC50: −log10 of the molar value. Starred links: 1 amine or outer side, 2 acyl side, 3 side chain; linkers in the order of their positions; H or OH if unused. Non-standard residues stand in square brackets, D forms with d. Residues, ends and D or L forms follow the SMILES beside them. Groups on a side chain read outwards from the residue. *: point of attachment. C20 diacid = O=C(O)CCCCCCCCCCCCCCCCCCC(=O)*; C18 diacid = O=C(O)CCCCCCCCCCCCCCCCC(=O)*; γGlu = O=C(O)[C@H](CCC(=O)[*:2])N[*:1]; αMeF = C[C@](N)(Cc1ccccc1)C(=O)O; AEEA = NCCOCCOCC(=O)O; Aib = CC(C)(N)C(=O)O
Tests used:
[1] = target: human GLP-1 receptor (hGLP-1R) (Homo sapiens, UniProt P43220); test: cAMP production (HTRF) in CHO cells expressing hGLP-1R; assay type: cell-based; design: expressed in transfected cells; settings: for pEC50: Table 6, peptides modified at position 17, cAMP in CHO hGLP-1R cells, geometric mean, read-out: hGLP-1R EC50; for % Relative Potency Ratio: Table 6, % GLP-1R activity relative to GLP-1 / % GlucR activity relative to glucagon
Procedure, shortened: (§1)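 Cells were resuspended in assay buffer at batch-optimized density, typically 1×10^5 cells/mL for hGLP-1R and 2×10^5 cells/mL for hGCGR. After 30 min incubation at room temperature with compound, cAMP was measured by two-step HTRF. EC50 values came from 4-parameter logistic fits of % Delta F.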

[2] = target: human glucagon receptor (hGCGR) (Homo sapiens, UniProt P47871); test: cAMP production (HTRF) in CHO cells expressing hGCGR; assay type: cell-based; design: expressed in transfected cells; settings: Table 6, peptides modified at position 17; cAMP in CHO hGCGR cells; geometric mean; read-out: hGluc-R EC50
Procedure, shortened: as §1

Chain of human glucagon receptor (hGCGR) (P47871 26-477): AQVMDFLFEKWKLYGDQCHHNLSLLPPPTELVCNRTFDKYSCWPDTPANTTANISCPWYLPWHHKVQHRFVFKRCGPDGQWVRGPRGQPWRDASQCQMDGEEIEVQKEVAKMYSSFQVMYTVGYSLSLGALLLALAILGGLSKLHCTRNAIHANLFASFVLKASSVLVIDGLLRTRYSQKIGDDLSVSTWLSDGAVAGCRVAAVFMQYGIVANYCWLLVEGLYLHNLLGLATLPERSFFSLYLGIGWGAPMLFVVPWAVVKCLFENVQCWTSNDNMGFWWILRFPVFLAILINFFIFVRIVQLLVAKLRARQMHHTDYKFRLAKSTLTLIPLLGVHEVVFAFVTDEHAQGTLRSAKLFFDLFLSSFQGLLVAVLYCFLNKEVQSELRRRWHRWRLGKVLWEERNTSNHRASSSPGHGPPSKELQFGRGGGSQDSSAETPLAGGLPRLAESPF
Chain of human GLP-1 receptor (hGLP-1R) (P43220 24-463): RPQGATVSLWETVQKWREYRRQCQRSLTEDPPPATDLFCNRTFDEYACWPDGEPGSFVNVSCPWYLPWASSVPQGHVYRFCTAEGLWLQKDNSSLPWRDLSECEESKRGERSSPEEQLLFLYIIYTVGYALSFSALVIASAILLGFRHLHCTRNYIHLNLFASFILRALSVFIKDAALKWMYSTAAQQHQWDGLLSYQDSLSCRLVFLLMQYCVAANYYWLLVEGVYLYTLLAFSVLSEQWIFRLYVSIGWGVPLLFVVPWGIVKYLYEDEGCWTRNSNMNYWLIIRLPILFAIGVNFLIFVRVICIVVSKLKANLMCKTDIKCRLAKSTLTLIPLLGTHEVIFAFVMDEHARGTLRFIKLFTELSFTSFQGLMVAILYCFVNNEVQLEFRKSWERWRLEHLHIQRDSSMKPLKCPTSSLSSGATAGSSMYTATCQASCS

| SMILES | pEC50 [1] | % Relative Potency Ratio [1] | pEC50 [2] |
| --- | --- | --- | --- |
| CC(C)C[C@H](NC(=O)[C@H](Cc1c[nH]c2ccccc12)NC(=O)[C@H](CCC(N)=O)NC(=O)[C@@H](NC(=O)[C@H](Cc1ccccc1)NC(=O)[C@H](CC(=O)O)NC(=O)[C@H](CCCNC(=N)N)NC(=O)[C@H](C)NC(=O)[C@H](CCCNC(=N)N)NC(=O)[C@H](CCCCNC(=O)COCCOCCNC(=O)COCCOCCNC(=O)CC[C@H](NC(=O)CCCCCCCCCCCCCCCCCCC(=O)O)C(=O)O)NC(=O)[C@@H](NC(=O)[C@H](CC(=O)O)NC(=O)[C@H](CC(C)C)NC(=O)[C@](C)(Cc1ccccc1)NC(=O)[C@H](CCCCN)NC(=O)[C@H](CO)NC(=O)[C@@H](NC(=O)[C@H](CC(=O)O)NC(=O)[C@H](CO)NC(=O)[C@@H](NC(=O)[C@H](Cc1ccccc1)NC(=O)[C@@H](NC(=O)CNC(=O)[C@H](CCC(N)=O)NC(=O)C(C)(C)NC(=O)[C@@H](N)Cc1c[nH]cn1)[C@@H](C)O)[C@@H](C)O)C(C)C)[C@@H](C)O)C(C)C)C(=O)N[C@@H](CC(C)C)C(=O)N[C@@H](CCCNC(=N)N)C(=O)NC(C)(C)C(=O)N[C@@H](C)C(=O)O [Peptide 502] (H-H[Aib]QGTFTSDVSK[αMeF]LDTK([AEEA-AEEA-γGlu-C20 diacid])RARDFVQWLLR[Aib]A-OH; N-terminus assumed) | 10.09 | 4.2 | 9.76 |
| CC(C)C[C@H](NC(=O)[C@H](Cc1c[nH]c2ccccc12)NC(=O)[C@H](CCCNC(=N)N)NC(=O)[C@@H](NC(=O)[C@H](Cc1ccccc1)NC(=O)[C@H](CC(=O)O)NC(=O)[C@H](CCC(N)=O)NC(=O)[C@H](C)NC(=O)[C@H](CCCNC(=N)N)NC(=O)[C@H](CCCCNC(=O)COCCOCCNC(=O)COCCOCCNC(=O)CC[C@H](NC(=O)CCCCCCCCCCCCCCCCCCC(=O)O)C(=O)O)NC(=O)[C@@H](NC(=O)[C@H](CC(=O)O)NC(=O)[C@H](CC(C)C)NC(=O)[C@](C)(Cc1ccccc1)NC(=O)[C@H](CCCCN)NC(=O)[C@H](CO)NC(=O)[C@@H](NC(=O)[C@H](CC(=O)O)NC(=O)[C@H](CO)NC(=O)[C@@H](NC(=O)[C@H](Cc1ccccc1)NC(=O)[C@@H](NC(=O)CNC(=O)[C@H](CCC(N)=O)NC(=O)C(C)(C)NC(=O)[C@@H](N)Cc1c[nH]cn1)[C@@H](C)O)[C@@H](C)O)C(C)C)[C@@H](C)O)C(C)C)C(=O)N[C@@H](CC(C)C)C(=O)N[C@@H](CCC(=O)O)C(=O)NC(C)(C)C(=O)N[C@@H](CCCCN)C(=O)O [Peptide 503] | 10.09 | 2.1 | 10.07 |
| CC(C)C[C@H](NC(=O)[C@H](Cc1c[nH]c2ccccc12)NC(=O)[C@H](CCCNC(=N)N)NC(=O)[C@@H](NC(=O)[C@H](Cc1ccccc1)NC(=O)[C@H](CC(=O)O)NC(=O)[C@H](CCC(N)=O)NC(=O)[C@H](C)NC(=O)[C@H](CCCNC(=N)N)NC(=O)[C@H](CCCCNC(=O)COCCOCCNC(=O)COCCOCCNC(=O)CC[C@H](NC(=O)CCCCCCCCCCCCCCCCCCC(=O)O)C(=O)O)NC(=O)[C@H](CO)NC(=O)[C@H](CCC(=O)O)NC(=O)[C@H](CC(C)C)NC(=O)[C@](C)(Cc1ccccc1)NC(=O)[C@H](CCCCN)NC(=O)[C@H](CO)NC(=O)[C@@H](NC(=O)[C@H](CC(=O)O)NC(=O)[C@H](CO)NC(=O)[C@@H](NC(=O)[C@H](Cc1ccccc1)NC(=O)[C@@H](NC(=O)CNC(=O)[C@H](CCC(N)=O)NC(=O)C(C)(C)NC(=O)[C@@H](N)Cc1c[nH]cn1)[C@@H](C)O)[C@@H](C)O)C(C)C)C(C)C)C(=O)N[C@@H](CC(C)C)C(=O)N[C@@H](CCC(=O)O)C(=O)NC(C)(C)C(=O)N[C@@H](CCCCN)C(=O)O [Peptide 504] | 9.91 | 8.8 | 9.26 |
| CC(C)C[C@H](NC(=O)[C@H](Cc1c[nH]c2ccccc12)NC(=O)[C@H](C)NC(=O)[C@@H](NC(=O)[C@H](Cc1ccccc1)NC(=O)[C@H](CC(=O)O)NC(=O)[C@H](CCCNC(=N)N)NC(=O)[C@H](C)NC(=O)[C@H](CCCNC(=N)N)NC(=O)[C@H](CCCCNC(=O)COCCOCCNC(=O)COCCOCCNC(=O)CC[C@H](NC(=O)CCCCCCCCCCCCCCCCCCC(=O)O)C(=O)O)NC(=O)[C@@H](NC(=O)[C@H](CC(=O)O)NC(=O)[C@H](CC(C)C)NC(=O)[C@](C)(Cc1ccccc1)NC(=O)[C@H](CCCCN)NC(=O)[C@H](CO)NC(=O)[C@@H](NC(=O)[C@H](CC(=O)O)NC(=O)[C@H](CO)NC(=O)[C@@H](NC(=O)[C@H](Cc1ccccc1)NC(=O)[C@@H](NC(=O)CNC(=O)[C@H](CCC(N)=O)NC(=O)C(C)(C)NC(=O)[C@@H](N)Cc1c[nH]cn1)[C@@H](C)O)[C@@H](C)O)C(C)C)[C@@H](C)O)C(C)C)C(=O)N[C@@H](CC(C)C)C(=O)N[C@@H](CCC(=O)O)C(=O)NC(C)(C)C(=O)NCC(=O)O [Peptide 506] (H-H[Aib]QGTFTSDVSK[αMeF]LDTK([AEEA-AEEA-γGlu-C20 diacid])RARDFVAWLLE[Aib]G-OH; N-terminus assumed) | 9.79 | 1.8 | 9.83 |
| CC(C)C[C@H](NC(=O)[C@H](Cc1c[nH]c2ccccc12)NC(=O)[C@H](CCCNC(=N)N)NC(=O)[C@@H](NC(=O)[C@H](Cc1ccccc1)NC(=O)[C@H](CC(=O)O)NC(=O)[C@H](CCC(N)=O)NC(=O)[C@H](C)NC(=O)[C@H](CCCNC(=N)N)NC(=O)[C@H](CCCCNC(=O)COCCOCCNC(=O)COCCOCCNC(=O)CC[C@H](NC(=O)CCCCCCCCCCCCCCCCCCC(=O)O)C(=O)O)NC(=O)[C@H](CO)NC(=O)[C@H](CCC(=O)O)NC(=O)[C@H](CC(C)C)NC(=O)[C@](C)(Cc1ccccc1)NC(=O)[C@H](CCCCN)NC(=O)[C@H](CO)NC(=O)[C@@H](NC(=O)[C@H](CC(=O)O)NC(=O)[C@H](CO)NC(=O)[C@@H](NC(=O)[C@H](Cc1ccccc1)NC(=O)[C@@H](NC(=O)CNC(=O)[C@H](CCC(N)=O)NC(=O)C(C)(C)NC(=O)[C@@H](N)Cc1c[nH]cn1)[C@@H](C)O)[C@@H](C)O)C(C)C)C(C)C)C(=O)N[C@H](C(=O)N[C@@H](CCC(=O)O)C(=O)NC(C)(C)C(=O)NCC(N)=O)C(C)C [Peptide 508] (H-H[Aib]QGTFTSDVSK[αMeF]LESK([AEEA-AEEA-γGlu-C20 diacid])RAQDFVRWLVE[Aib]G-NH2) | 10.17 | 81.6 | 8.55 |

Stronger by pEC50 [1], values ahead:

| pEC50 [1] | % Relative Potency Ratio [1] | pEC50 [2] | SMILES |
| --- | --- | --- | --- |
| 10.28 | 3.2 | 10.06 | CC(C)C[C@H](NC(=O)[C@H](Cc1c[nH]c2ccccc12)NC(=O)[C@H](C)NC(=O)[C@@H](NC(=O)[C@H](Cc1ccccc1)NC(=O)[C@H](CC(=O)O)NC(=O)[C@H](CCCNC(=N)N)NC(=O)[C@H](C)NC(=O)[C@H](CCCNC(=N)N)NC(=O)[C@H](CCCCNC(=O)COCCOCCNC(=O)COCCOCCNC(=O)CC[C@H](NC(=O)CCCCCCCCCCCCCCCCCCC(=O)O)C(=O)O)NC(=O)[C@@H](NC(=O)[C@H](CC(=O)O)NC(=O)[C@H](CC(C)C)NC(=O)[C@](C)(Cc1ccccc1)NC(=O)[C@H](CCCCN)NC(=O)[C@H](CO)NC(=O)[C@@H](NC(=O)[C@H](CC(=O)O)NC(=O)[C@H](CO)NC(=O)[C@@H](NC(=O)[C@H](Cc1ccccc1)NC(=O)[C@@H](NC(=O)CNC(=O)[C@H](CCC(N)=O)NC(=O)C(C)(C)NC(=O)[C@@H](N)Cc1c[nH]cn1)[C@@H](C)O)[C@@H](C)O)C(C)C)[C@@H](C)O)C(C)C)C(=O)N[C@@H](CC(C)C)C(=O)N[C@@H](CCC(=O)O)C(=O)NC(C)(C)C(=O)NCC(N)=O [Peptide 507] |
| 10.38 | 9.0 | 9.72 | CC(C)C[C@H](NC(=O)[C@H](Cc1c[nH]c2ccccc12)NC(=O)[C@H](CCC(N)=O)NC(=O)[C@@H](NC(=O)[C@H](Cc1ccccc1)NC(=O)[C@H](CC(=O)O)NC(=O)[C@H](CCC(N)=O)NC(=O)[C@H](C)NC(=O)[C@H](CCCNC(=N)N)NC(=O)[C@H](CCCCNC(=O)COCCOCCNC(=O)COCCOCCNC(=O)CC[C@H](NC(=O)CCCCCCCCCCCCCCCCCCC(=O)O)C(=O)O)NC(=O)[C@@H](NC(=O)[C@H](CC(=O)O)NC(=O)[C@H](CC(C)C)NC(=O)[C@](C)(Cc1ccccc1)NC(=O)[C@H](CCCCN)NC(=O)[C@H](CO)NC(=O)[C@@H](NC(=O)[C@H](CC(=O)O)NC(=O)[C@H](CO)NC(=O)[C@@H](NC(=O)[C@H](Cc1ccccc1)NC(=O)[C@@H](NC(=O)CNC(=O)[C@H](CCC(N)=O)NC(=O)C(C)(C)NC(=O)[C@@H](N)Cc1c[nH]cn1)[C@@H](C)O)[C@@H](C)O)C(C)C)[C@@H](C)O)C(C)C)C(=O)N[C@@H](CC(C)C)C(=O)N[C@@H](CCC(=O)O)C(=O)NC(C)(C)C(=O)N[C@@H](CCCCN)C(N)=O [Peptide 505] (H-H[Aib]QGTFTSDVSK[αMeF]LDTK([AEEA-AEEA-γGlu-C20 diacid])RAQDFVQWLLE[Aib]K-NH2) |
| 10.58 | 5.6 | 10.12 | CC(C)C[C@H](NC(=O)[C@H](Cc1c[nH]c2ccccc12)NC(=O)[C@H](CCC(N)=O)NC(=O)[C@@H](NC(=O)[C@H](Cc1ccccc1)NC(=O)[C@H](CC(=O)O)NC(=O)[C@H](CCCNC(=N)N)NC(=O)[C@H](C)NC(=O)[C@H](CCCNC(=N)N)NC(=O)[C@H](CCCCNC(=O)COCCOCCNC(=O)COCCOCCNC(=O)CC[C@H](NC(=O)CCCCCCCCCCCCCCCCC(=O)O)C(=O)O)NC(=O)[C@@H](NC(=O)[C@H](CC(=O)O)NC(=O)[C@H](CC(C)C)NC(=O)[C@](C)(Cc1ccccc1)NC(=O)[C@H](CCCCN)NC(=O)[C@H](CO)NC(=O)[C@@H](NC(=O)[C@H](CC(=O)O)NC(=O)[C@H](CO)NC(=O)[C@@H](NC(=O)[C@H](Cc1ccccc1)NC(=O)[C@@H](NC(=O)CNC(=O)[C@H](CCC(N)=O)NC(=O)C(C)(C)NC(=O)[C@@H](N)Cc1c[nH]cn1)[C@@H](C)O)[C@@H](C)O)C(C)C)[C@@H](C)O)C(C)C)C(=O)N[C@@H](CC(C)C)C(=O)N[C@@H](CCCNC(=N)N)C(=O)NC(C)(C)C(=O)N[C@@H](C)C(=O)O [Peptide 501] (H-H[Aib]QGTFTSDVSK[αMeF]LDTK([AEEA-AEEA-γGlu-C18 diacid])RARDFVQWLLR[Aib]A-OH; N-terminus assumed) |

Reference: US20250353891A1 (MEDIMMUNE LIMITED, priority 2022, published 2025)
